The record followed here is patent US8901315B2, “Thienopyrazole derivative having PDE7 inhibitory activity” (Daiichi Sankyo Company, Limited, priority 2004, dated 2014).

Structures can show the parent of a compound that is named as a salt.

In assay [1] the target is PDE 7 (phosphodiesterase VII) (Homo sapiens (Human), UniProt Q13946). The experiment in a line: PDE 7 inhibiting effect (3H-cAMP hydrolysis, PDE 7 active fraction from MOLT-4 cells). Format: biochemical. As to conditions: PDE 7 fraction from MOLT-4 cells, 0.064 μM cAMP, 10 μM rolipram, 2 hours at 25° C.; read-out: PDE7 IC50. On the procedure:
Methods for Evaluating the PDE 7 Inhibiting Effect
The PDE 7 (phosphodiesterase VII) inhibiting effect of the compounds of the present invention was performed by the following method, which was modified assay method described in Biochemical. Pharmacol. 48(6), 1219-1223 (1994). • (1) The active fraction of PDE 7 (phosphodiesterase VII) was obtained. That is, MOLT-4 (obtainable from ATCC as ATCC No. CRL-1582), which was cell line of human acute lymphoblastic lymphoma T cells, was incubated in RPMI1640 culture medium containing 10% fetal bovine serum to obtain 5×10^8 MOLT-4 cells. The cells were collected by centrifugation and suspended with 10 mL of buffer solution A [25 mM of tris-HCl, 5 mM of 2-mercaptoethanol, 2 mM of benzamidine, 2 mM of EDTA, 0.1 mM of 4-(2-aminoethyl)benzenesulfonyl hydrochloride; pH 7.5], then homogenized by Polytron® homogenizer. The homogenate were centrifuged under 25,000×G for 10 minutes at 4° C. The supernatant was separated and thus obtained supernatant was further centrifuged under 100,000×G for 60 minutes at 4° C., and then filtrated with 0.2 μm filter to obtain the soluble fraction. • (2) The obtained soluble fraction was filled in equilibrium HiTrap Q column (5 mL×2) with buffer solution A, and phosphodiesterase fractions were eluted by 300 mL of buffer solution A with linear gradient from 0 to 0.8 M NaCl concentration. 5 mL each of 60 eluents were collected, and each eluents were examined for cyclic AMP metabolic activities of phosphodiesterase. […] After the reaction, suspension of Sephadex®-QAE in 10 mM of HEPES-Na (pH 7.0) was added to the reaction mixture, and the mixture was left at rest for 5 minutes.

The target in assay [2] is PDE 4 (phosphodiesterase IV). In words: PDE 4 inhibiting effect (3H-cAMP hydrolysis, PDE 4 active fraction from Balb/c mouse liver). Format: biochemical. As to conditions: PDE 4 fraction from Balb/c mice liver, 0.064 μM cAMP, 2 hours at 25° C.; read-out: PDE4 IC50. On the procedure:
Methods for Evaluating the PDE 4 Inhibiting Effect
The PDE 4 (phosphodiesterase IV) inhibiting effect of the compounds of the present invention was performed by the following method, which was modified assay method described in Biochemical. […] That is, the livers obtained from three Balb/c mice (male, 12 weeks: obtainable from CLEA Japan, Inc.) were suspended with 30 mL of buffer solution B [20 mM of bis-tris, 5 mM of 2-mercaptoethanol, 2 mM of benzamidine, 2 mM of EDTA, 0.1 mM of 4-(2-aminoethyl)benzenesulfonyl hydrochloride, 50 mM of sodium acetate; pH 6.5], then homogenized by Polytron® homogenizer. The homogenate were centrifuged under 25,000×G for 10 minutes at 4° C. The supernatant was separated and thus obtained supernatant was further centrifuged under 100,000×G for 60 minutes at 4° C., and then filtrated with 0.2 μm filter to obtain the soluble fraction. • (2) The obtained soluble fraction was filled in equilibrium DEAE sepharose column (1×10 cm) with buffer solution B, and phosphodiesterase fractions were eluted by 120 mL of buffer solution B with linear gradient from 0.05 to 1M sodium acetate concentration. 5 mL each of 24 eluents were collected, and each eluents were examined for cyclic AMP metabolic activities of phosphodiesterase. […] After the reaction, suspension of Sephadex®-QAE in 10 mM of HEPES-Na (pH 7.0) was added to the reaction mixture, and the mixture was left at rest for 5 minutes.

Chain of PDE 7 (phosphodiesterase VII) (Q13946 whole entry): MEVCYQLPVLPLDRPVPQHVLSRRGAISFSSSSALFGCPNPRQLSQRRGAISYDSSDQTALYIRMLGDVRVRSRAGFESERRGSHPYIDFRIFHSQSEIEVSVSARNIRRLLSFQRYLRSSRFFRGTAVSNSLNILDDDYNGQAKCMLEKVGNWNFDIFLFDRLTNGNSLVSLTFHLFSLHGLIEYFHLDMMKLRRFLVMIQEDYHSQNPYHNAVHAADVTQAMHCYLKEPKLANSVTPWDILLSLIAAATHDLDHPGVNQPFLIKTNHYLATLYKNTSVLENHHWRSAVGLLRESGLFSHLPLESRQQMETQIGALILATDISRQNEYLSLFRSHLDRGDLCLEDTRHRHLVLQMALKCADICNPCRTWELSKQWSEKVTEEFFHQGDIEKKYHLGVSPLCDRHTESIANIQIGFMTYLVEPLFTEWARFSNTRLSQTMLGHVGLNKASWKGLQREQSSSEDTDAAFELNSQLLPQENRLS

By IC50 is commonly meant the concentration that inhibits the measured activity by half. `CC[C@H](CN1C(=O)CNC1=O)NC(=O)c1cc2c(C)nn(C3CCCCC3)c2s1` [Example 331, 1-Cyclohexyl-N-{(1R)-1-[(2,5-dioxo-1-imidazolidinyl)methyl]propyl}-3-methyl-1H-thieno[2,3-c]pyrazole-5-carboxamide]: the IC50 was 29 nM in assay [1] and 4900 nM in assay [2].
On the same counts, the results for `CNC(=O)c1ccc(NC(=O)c2cc3c(C)nn(C4CCCCC4)c3s2)cc1` [Example 20] are 33 nM and more than 30000 nM.
The corresponding values for `Cc1nn(C2CCCCC2)c2sc(C(=O)Nc3ccc(N4CCN(C)CC4)cc3)cc12` [Example 106, 1-Cyclohexyl-3-methyl-N-[4-(4-methyl-1-piperazinyl)phenyl]-1H-thieno[2,3-c]pyrazole-5-carboxamide] are 9 nM and 1200 nM.
As for `Cc1nn(C2CCCCC2)c2sc(C(=O)N[C@H]3CC[C@H](N4CCN(C)CC4=O)CC3)cc12` [Example 416, 1-Cyclohexyl-3-methyl-N-[trans-4-(4-methyl-2-oxo-1-piperazinyl)-cyclohexyl]-1H-thieno[2,3-c]pyrazole-5-carboxamide], the IC50 in assay [1] amounted to 17 nM; in assay [2] it was 1300 nM.
On the same counts, the results for `Cc1nn(C2CCOCC2)c2sc(C(=O)N[C@H]3CC[C@H](N4C[C@@H](C)O[C@@H](C)C4)CC3)cc12` [Example 402, N-[trans-4-(cis-2,6-Dimethylmorpholinyl)cyclohexyl]-3-methyl-1-tetrahydro-2H-pyran-4-yl-1H-thieno[2,3-c]pyrazole-5-carboxamide] are 19 nM and 7300 nM.
As for `Cc1nn(C2CCCCC2)c2sc(C(=O)Nc3ccc(OCC(=O)N(C)C)cc3)cc12` [Example 77, 1-Cyclohexyl-N-{4-[2-(dimethylamino)-2-oxoethoxy]phenyl}-3-methyl-1H-thieno[2,3-c]pyrazole-5-carboxamide], the IC50 in assay [1] turned out to be 20 nM; in assay [2], 2000 nM.
Regarding `CCN1C(=O)CN(CCNC(=O)c2cc3c(C)nn(C4CCCCC4)c3s2)C1=O` [Example 316, 1-Cyclohexyl-N-[2-(3-ethyl-2,4-dioxo-1-imidazolidinyl)ethyl]-3-methyl-1H-thieno[2,3-c]pyrazole-5-carboxamide], the IC50 in assay [1] stood at 97 nM; in assay [2], 15000 nM.
Consider `Cc1nn(C2CCCCC2)c2sc(C(=O)Nc3ccc(S(=O)(=O)N4CCN(C)CC4)cc3)cc12` [Example 36, 1-Cyclohexyl-3-methy-N-{4-[(4-methyl-1-piperazinyl)sulfonyl]-phenyl}-1H-thieno[2,3-c]pyrazole-5-carboxamide], for which the IC50 was 40 nM in assay [1] and 25000 nM in assay [2].
`Cc1nn(C2CCOCC2)c2sc(C(=O)Nc3ccc(N4CCN(C)CC4=O)cc3)cc12` [Example 440, 3-Methyl-N-[4-(4-methyl-2-oxo-piperazinyl)phenyl]-1-tetrahydro-2H-pyran-4-yl-1H-thieno[2,3-c]pyrazole-5-carboxamide]: the concentration for half-maximal inhibition (IC50) was determined as 97 nM in assay [1] and 28000 nM in assay [2].
`Cc1nn(C2CCOCC2)c2sc(C(=O)N[C@H]3CC[C@H](N4CCC(O)CC4)CC3)cc12` [Example 425, N-[trans-4-(4-Hydroxy-1-piperidinyl)cyclohexyl]-3-methyl-1-tetrahydro-2H-pyran-4-yl-1H-thieno[2,3-c]pyrazole-5-carboxamide]: the results for the half-maximal inhibitory concentration (IC50) in assay [1] and in assay [2] were 90 nM and 13000 nM, respectively.
The corresponding values for `Cc1nn(C2CCCCC2)c2sc(C(=O)Nc3ccc(C(=O)NCCO)nc3)cc12` [Example 379, 1-Cyclohexyl-N-(6-{[(2-hydroxyethyl)amino]carbonyl}-3-pyridinyl)-3-methyl-1H-thieno[2,3-c]pyrazole-5-carboxamide] are 13 nM and 1200 nM.
For `Cc1nn(C2CCOCC2)c2sc(C(=O)Nc3ccc(C(=O)N(C)C)cc3)cc12` [Example 255, N-{4-[(Dimethylamino)carbonyl]phenyl}-3-methyl-1 tetrahydro-2H-pyran-4-yl-1H-thieno[2,3-c]pyrazole-5-carboxamide], the IC50 in assay [1] amounted to 89 nM; in assay [2], 12000 nM.
On the same counts, the results for `Cc1nn(C2CCCCC2)c2sc(C(=O)Nc3ccc(N4CCNC(=O)C4)cc3)cc12` [Example 341, 1-Cyclohexyl-3-methyl-N-[4-(3-oxo-1-piperazinyl)phenyl]-1H-thieno[2,3-c]pyrazole-5-carboxamide] are 5 nM and 1800 nM.
For `Cc1nn(C2CCCCC2)c2sc(C(=O)Nc3ccc(C(=O)O)cc3)cc12` [Example 41, 4-{[(1-Cyclohexyl-methyl-1H-thieno[2,3-c]pyrazol-5-yl)carbonyl]-amino}benzoic acid], the figures for the half-inhibitory concentration (IC50) in assay [1] and in assay [2] were 50 nM and 12000 nM, respectively.
Take `Cc1nn(C2CCCCC2)c2sc(C(=O)Nc3ccc(C(=O)N4CCN(C)CC4)cc3)cc12` [Example 32, 1-Cyclohexyl-3-methyl-N-{4-[(4-methyl-1-piperazinyl)carbonyl]-phenyl}-1H-thieno[2,3-c]pyrazole-5-carboxamide]: the half-inhibitory concentration (IC50) in assay [1] is 95 nM; in assay [2], 2500 nM.
Turning to `CC(=O)N(C)C1CCN([C@H]2CC[C@H](NC(=O)c3cc4c(C)nn(C5CCCCC5)c4s3)CC2)CC1` [Example 180, N-(trans-4-{4-[Acetyl(methyl)amino]-1-piperidinyl}cyclohexyl)-1-cyclohexyl-3-methyl-1H-thieno[2,3-c]pyrazole-5-carboxamide], the IC50 in assay [1] was found to be 10 nM; in assay [2], 1400 nM.
As to `Cc1nn(C2CCOCC2)c2sc(C(=O)Nc3ccc(N4CCNC4=O)nc3)cc12` [Example 261], the 50% inhibitory concentration (IC50) in assay [1] was determined as 28 nM; in assay [2], 1900 nM.
As for `CC(=O)N1CCc2cc(NC(=O)c3cc4c(C)nn(C5CCCCC5)c4s3)ccc21` [Example 11, N-(1-Acetyl-2,3-dihydro-1H-indo-5-yl)-1-cyclohexyl-3-methyl-1H-thieno[2,3-c]pyrazole-5-carboxamide], the IC50 in assay [1] worked out at 19 nM; in assay [2] it was 2000 nM.
Regarding `Cc1nn(C2CCCCC2)c2sc(C(=O)N[C@H]3CC[C@H](NC(=O)N(C)CC(=O)OCc4ccccc4)CC3)cc12` [Example 275, Benzyl [{[(trans-4-{[(1 cyclohexyl-3-methyl-1H-thieno[2,3-c]pyrazol-5-yl)carbonyl]amino}cyclohexyl)amino]carbonyl}(methyl)amino]acetate], the IC50 in assay [1] stood at 4 nM; in assay [2], 1200 nM.
On to `CNC1CCN(c2ccc(NC(=O)c3cc4c(C)nn(C5CCCCC5)c4s3)cc2Cl)CC1` [Example 165, N-{3-Chloro-4-[4-(methylamino)-1-piperidinyl]phenyl}-1-cyclohexyl-3-methyl-1H-thieno[2,3-c]pyrazole-5-carboxamide], for which the IC50 came out at 20 nM in assay [1] and 650 nM in assay [2].
On to `CC(=O)Nc1ccc(NC(=O)c2cc3c(C)nn(C4CCCCC4)c3s2)cn1` [Example 47, N-[6-(Acetylamino)-3-pyridinyl]-1-cyclohexyl-3-methyl-1H-thieno[2,3-c]pyrazole-5-carboxamide], for which the IC50 amounted to 32 nM in assay [1] and 3500 nM in assay [2].
For the compound `Cc1nn(C2CCCCC2)c2sc(C(=O)Nc3ccc(N4CCN(C)CC4)c(F)c3)cc12` [Example 155, 1-Cyclohexyl-N-[3-fluoro-4-(4-methyl-1-piperazinyl)phenyl]-3-methyl-1H-thieno[2,3-c]pyrazole-5-carboxamide methanesulfonic acid salt], the values for the half-maximal inhibitory concentration (IC50) in assay [1] and in assay [2] were 10 nM and 1500 nM, respectively.
On the same counts, the results for `Cc1nn(C2CCCCC2)c2sc(C(=O)N[C@H]3CC[C@H](N4CCC(N)CC4)CC3)cc12` [Example 184, N-[trans-4-(4-Amino-1-piperidinyl)cyclohexyl]-1-cyclohexyl-3-methyl-1H-thieno[2,3-c]pyrazole-5-carboxamide] are 6.8 nM and 1100 nM.
